Results reported in PMC10943693, “Evaluation of binding mechanism of dietary phytochemical, capsaicin, with human transferrin: targeting neurodegenerative diseases therapeutics” (Frontiers in Pharmacology, 2024).

Biological target: T1, Human transferrin (htf) (Homo sapiens, UniProt P02787)
T1 construct: gene TF; commercial protein from Sigma Aldrich
Test: intrinsic fluorescence quenching (excitation […] nm), modified Stern-Volmer plot
Format: binding
Details: 4 µM htf, 0-6 µM capsaicin; inner filter corrected; double-log

T1 sequence (P02787 20-698): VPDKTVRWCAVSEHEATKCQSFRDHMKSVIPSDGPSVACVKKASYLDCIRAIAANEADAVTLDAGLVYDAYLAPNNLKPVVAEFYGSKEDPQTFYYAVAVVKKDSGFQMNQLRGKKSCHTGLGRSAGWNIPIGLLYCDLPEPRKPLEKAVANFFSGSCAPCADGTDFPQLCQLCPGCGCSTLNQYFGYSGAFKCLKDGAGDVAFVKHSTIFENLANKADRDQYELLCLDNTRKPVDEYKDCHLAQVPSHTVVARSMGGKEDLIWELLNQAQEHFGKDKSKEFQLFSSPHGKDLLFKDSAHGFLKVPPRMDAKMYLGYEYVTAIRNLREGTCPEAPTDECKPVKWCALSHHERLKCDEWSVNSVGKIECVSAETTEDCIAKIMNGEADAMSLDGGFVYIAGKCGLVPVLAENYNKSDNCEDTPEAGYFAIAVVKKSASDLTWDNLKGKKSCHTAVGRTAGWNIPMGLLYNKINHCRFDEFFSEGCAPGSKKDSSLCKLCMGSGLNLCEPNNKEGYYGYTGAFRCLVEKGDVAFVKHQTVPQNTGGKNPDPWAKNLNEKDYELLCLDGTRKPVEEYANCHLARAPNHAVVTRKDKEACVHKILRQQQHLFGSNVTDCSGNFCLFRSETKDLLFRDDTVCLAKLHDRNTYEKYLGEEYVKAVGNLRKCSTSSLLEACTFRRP

## COc1cc(CNC(=O)CCCC/C=C/C(C)C)ccc1O [capsaicin, 8-methyl-N-vanillyl-6-nonenamide]
  K: 3.99e+06 M⁻¹
